Reference: patent US11352358B2, “FXR agonist” (XUANZHU BIOPHARMACEUTICAL CO., LTD., priority 2017, dated 2022)

Test system: BSEP mRNA in HepG2 cells
Experiment: Relative expression of BSEP mRNA in HepG2 cells (qPCR), Experimental Example 1
Type: cell-based, human
Settings: Table 1, 24 hrs, expression under 3 μM of PX-104 as 100%
Method: compounds of the present invention (for their chemical names and preparation methods, see the preparation example of each compound); compound PX-104 and compound 30-70 (for their structures, see the background of the invention, and for their preparation methods, see patent applications WO2011020615A1 and WO2012087519A1).
Cells were digested with pancreatin and collected, and the concentration of the cells was determined; according to the counting result, the cells were resuspended to a density of 7.5×10^5 cells/mL; 2 mL of the cell suspension was inoculated in each well of a 6-well cell culture plate; and the culture plate was placed in an incubator and cultured under the conditions of 37° C. and 5% CO2 for 24 hrs.
The to-be-tested compounds were diluted to 0.3 mM and 3 mM with DMSO; and 5 μL of each stock solution diluted in the previous step was added to 5 mL of medium individually. The concentrations of the obtained working solutions were 0.3 μM and 3 μM respectively. In the control group, medium was prepared by using equivoluminal DMSO instead of the stock solutions; the cell culture plate was taken out from the incubator; the medium was removed from the cell culture plate, and the working solutions and the control medium were added correspondingly; and the culture plate was then put back into the incubator and cultured under the conditions of 37° C. and 5% CO2 for 24 hrs.
after treatment for 24 hrs, the cell culture plate was taken out, and the medium was removed from the plate; the cells were rinsed three times with pre-cooled (4° C.) PBS; and 200 μL of pancreatin (preheated to 37° C.) was added to each well, and the plate was then gently shaken such that the pancreatin could evenly cover the plate bottom. The culture plate was then placed back into the incubator and incubated until the cells were separated from the plate bottom. 1 mL of medium was added to terminate digestion. The solution was gently pipetted and blown for several times with a pipettor, all the substances in each well were pipetted into a 1.5 mL Rnase-free centrifuge tube and centrifuged at 200×g for 5 mins; supernatants were removed to collect cell samples.
Cell lysis: Fresh RNA lysis buffer was prepared (wherein 10 μL of 2-mercaptoethanol was added to 1 mL of lysis buffer); 600 μL of lysis buffer was added to each cell sample; the cells were lysed completely by 1 to 2 mins of vigorous vortexing; the cell lysates were centrifuged at 12,000×g for 5 mins; and the supernatants were transferred to 1.5 mL Rnase-free centrifuge tubes.
Extraction and purification of RNA: An equal amount of 70% ethanol was added to each cell lysate; the centrifuge tubes were then shaken vigorously, and the buffer was mixed sufficiently, so that the particulate precipitates that might be formed after the addition of ethanol were dispersed as even as possible; and adsorption columns were put into collecting tubes, and the mixtures were transferred to the adsorption columns. 700 μL was transferred at most each time; and the solutions were centrifuged at 12,000×g under room temperature for 15 secs. The solutions in the collecting tubes were discarded, and the adsorption columns were put into the collecting tubes once again; and all the remaining mixtures were then transferred into the adsorption columns. 700 μL of eluent I was added to the adsorption column; and the solutions were centrifuged at 12,000×g under room temperature for 15 secs. The adsorption columns were put into new collecting tubes; 500 μL of eluent II was added to the adsorption column; and the solutions were centrifuged at 12,000×g under room temperature for 15 secs. […]

Q: What does the source list for O=C(O)c1ccc2nc(N3C[C@@H]4C[C@H]3C[C@H]4OCc3c(-c4c(Cl)cccc4Cl)noc3C3CC3)sc2c1 [Compound 2-1, 2-((1S, 4S, 5R)-5-((5-cyclopropyl-3-(2,6-dichlorophenyl)isoxazol-4-yl)methoxy)-2-azabicyclo[2.2.1]heptan-2-yl)benzo[d]thiazole-6-carboxylic acid]?
A: relative expression of BSEP mRNA in HepG2 cells (0.3 μM): 166%; relative expression of BSEP mRNA in HepG2 cells (3 μM): 185%
